Laboratory results reported in US20130310379A1, “MODULATORS OF METHYL MODIFYING ENZYMES, COMPOSITIONS AND USES THEREOF” (CONSTELLATION PHARMACEUTICALS, priority 2010, published 2013).

These molecules were tested against EZH2 (Homo sapiens, UniProt Q15910) (assay: EZH2 assay: rPRC2 with biotinylated oligonucleosome substrates and 3H SAM, FlashPlate scintillation counting, IC50). Settings: rPRC2, biotinylated oligonucleosome substrates, 3H SAM; read-out: EZH2 IC50.
EZH2, sequence (Q15910 whole entry): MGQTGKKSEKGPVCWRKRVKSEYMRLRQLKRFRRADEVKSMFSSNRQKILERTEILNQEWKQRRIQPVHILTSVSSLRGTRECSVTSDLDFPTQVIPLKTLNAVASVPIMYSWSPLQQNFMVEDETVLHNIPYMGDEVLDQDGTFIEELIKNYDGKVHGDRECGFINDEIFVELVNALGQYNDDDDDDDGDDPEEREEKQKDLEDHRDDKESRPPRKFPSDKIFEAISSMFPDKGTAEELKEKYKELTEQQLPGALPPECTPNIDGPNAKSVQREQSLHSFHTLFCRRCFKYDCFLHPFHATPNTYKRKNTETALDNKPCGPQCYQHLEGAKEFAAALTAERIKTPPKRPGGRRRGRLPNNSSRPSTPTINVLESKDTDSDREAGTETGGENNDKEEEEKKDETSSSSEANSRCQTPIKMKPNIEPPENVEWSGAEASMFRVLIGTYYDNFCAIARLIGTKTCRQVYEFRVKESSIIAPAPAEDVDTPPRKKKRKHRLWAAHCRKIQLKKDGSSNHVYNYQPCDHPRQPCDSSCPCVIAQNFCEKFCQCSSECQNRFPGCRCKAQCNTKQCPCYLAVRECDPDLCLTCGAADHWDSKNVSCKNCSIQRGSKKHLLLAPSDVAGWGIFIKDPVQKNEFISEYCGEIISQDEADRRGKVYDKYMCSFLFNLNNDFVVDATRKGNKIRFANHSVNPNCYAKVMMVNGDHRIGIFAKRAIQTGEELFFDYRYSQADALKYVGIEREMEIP
EZH2, sequence (O75530 whole entry partner): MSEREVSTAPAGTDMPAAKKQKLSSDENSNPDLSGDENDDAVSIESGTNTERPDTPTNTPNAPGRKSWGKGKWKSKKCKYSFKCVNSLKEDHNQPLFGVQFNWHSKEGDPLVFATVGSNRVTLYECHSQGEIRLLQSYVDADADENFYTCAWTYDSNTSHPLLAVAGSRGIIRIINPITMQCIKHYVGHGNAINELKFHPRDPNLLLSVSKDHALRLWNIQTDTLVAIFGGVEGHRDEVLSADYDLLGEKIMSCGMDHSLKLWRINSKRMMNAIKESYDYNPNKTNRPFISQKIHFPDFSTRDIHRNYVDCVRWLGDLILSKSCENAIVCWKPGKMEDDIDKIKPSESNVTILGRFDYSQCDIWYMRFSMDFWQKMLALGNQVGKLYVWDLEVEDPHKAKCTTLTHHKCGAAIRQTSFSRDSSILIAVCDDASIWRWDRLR
EZH2, sequence (Q15022 whole entry partner): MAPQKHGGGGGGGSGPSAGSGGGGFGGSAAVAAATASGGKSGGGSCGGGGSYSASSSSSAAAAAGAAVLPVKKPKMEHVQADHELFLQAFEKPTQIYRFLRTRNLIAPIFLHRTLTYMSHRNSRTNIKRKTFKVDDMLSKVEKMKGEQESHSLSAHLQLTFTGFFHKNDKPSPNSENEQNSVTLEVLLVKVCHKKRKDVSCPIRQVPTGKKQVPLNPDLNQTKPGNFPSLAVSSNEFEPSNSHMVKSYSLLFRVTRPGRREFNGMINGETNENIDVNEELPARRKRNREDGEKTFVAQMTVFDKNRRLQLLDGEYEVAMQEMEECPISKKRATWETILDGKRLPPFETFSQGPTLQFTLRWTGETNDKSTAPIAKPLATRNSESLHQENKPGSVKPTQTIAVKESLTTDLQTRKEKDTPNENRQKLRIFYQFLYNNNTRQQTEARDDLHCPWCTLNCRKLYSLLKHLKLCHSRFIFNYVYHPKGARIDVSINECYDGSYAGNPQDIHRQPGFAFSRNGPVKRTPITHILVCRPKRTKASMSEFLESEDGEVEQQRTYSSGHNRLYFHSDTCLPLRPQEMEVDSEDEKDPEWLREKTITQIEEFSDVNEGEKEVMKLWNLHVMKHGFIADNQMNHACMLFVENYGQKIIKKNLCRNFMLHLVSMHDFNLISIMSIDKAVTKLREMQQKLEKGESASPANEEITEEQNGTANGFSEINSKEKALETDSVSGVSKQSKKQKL
Format: biochemical
Description: Assays were carried out by mixing rPRC2 together with biotinylated oligonucleosome substrates in the presence of the radio-labeled enzyme co-factor, S-adenosyl-L-methionine (^3H SAM) (Perkin Elmer) and monitoring the enzymatically mediated transfer of tritiated methyl groups from ^3H SAM to histone lysine residues. The amount of resulting tritated methylhistone product was measured by first capturing the biotinylated oligonuclesomes in streptavidin (SAV) coated FlashPlates (Perkin Elmer), followed by a wash step to remove un-reacted ^3H SAM, and then counting on a TopCount NXT 384 well plate scintillation counter (Perkin Elmer). The final assay conditions for EZH2 were as follows: 50 mM Tris Buffer pH 8.5, 1 mM DTT, 69 uM Brij-35 detergent, 5.0 mM MgCl2, 0.1 mg/mL BSA, 0.2 uM ^3H SAM, 0.2 uM biotinylated oligonucleosomes, 3.6 uM H3K27me3 peptide and 2 nM EZH2.
Compound IC50 measurements were obtained as follows: Compounds were first dissolved in 100% DMSO as 10 mM stock solutions. […] A 12.5 uL volume of the HMT enzyme, H3K27me3 peptide and oligonucleosome substrate in assay buffer was added to each well of the assay plate using a Multidrop Combi (ThermoFisher). Compounds were pre-incubated with the enzyme for 20 min, followed by initiation of the methyltransferase reaction by addition of 12.5 uL of 3H SAM in assay buffer (final volume=25 uL). The final concentrations of compounds ranged from a top default concentration of 80 uM down to 0.16 uM in ten 2-fold dilution steps. Reactions were carried out for 60 minutes and quenched with 20 uL per well of 1.96 mM SAH, 50 mM Tris PH 8.5, 200 mM EDTA. Stopped reactions were transferred to SAV coated Flashplates (Perkin Elmer), incubated for 120 min, washed with a plate washer, and then read on the TopCount NXT (1.0 min/well) to measure the amount of methylhistone product formed during the reaction. The amount of methylhistone product was compared with the amount of product formed in the 0% and 100% inhibition control wells allowing the calculation of % Inhibition in the presence of the individual compounds at various concentrations. IC50's were computed using a 4 parameter fit non-linear curve fitting software package (XLFIT, part of the database package, ActivityBase (IDBS)) where the four parameters were IC50, Hill slope, pre-transitional baseline (0% INH), and post-transitional baseline (100% INH); with the latter two parameters being fixed to zero and 100%, respectively, by default.
With `CC1(C)CC(NC(=O)c2ccc(OCC3CCCCN3)c(Cl)c2)CC(C)(C)N1` (stereo not drawn) [Compound I-450] the IC50 was over 80 µM. `COCc1cccc(Oc2ccc(C(=O)NC3CC(C)(C)NC(C)(C)C3)cc2Cl)c1C#N` [Compound I-453] gave an IC50 of under 5 µM. For `CC1(C)CC(NC(=O)c2ccc(Oc3cccc(-c4ccnnc4)c3C#N)c(Cl)c2)CC(=O)N1` (stereo not drawn) [Compound I-519], the IC50 was 20 to 80 µM. `COc1ccc(Oc2ccc(C(=O)NC3CC(C)(C)NC(C)(C)C3)cc2)cc1` [Compound I-97] gave an IC50 of over 80 µM. Molecule `CNCc1cccc(Oc2ccc(C(=O)NC3CC(C)(C)NC(C)(C)C3)cc2Cl)c1` [Compound I-425] has an IC50 of over 80 µM. Molecule `N#Cc1ccccc1Oc1ccc(C(=O)NC2CCNCC2)cc1Cl` [Compound I-178] has an IC50 of over 80 µM. `CC1(C)CC(NC(=O)c2ccc(OC3CCNCC3)c(Cl)c2)CC(C)(C)N1` [Compound I-382] was tested, and the IC50 was over 80 µM. Work on `N#Cc1ccccc1Oc1ccc(C(=O)NC2CCNC(=O)C2)cc1Cl` (stereo not drawn) [Compound I-403] yielded an IC50 of over 80 µM. Work on `CC1(C)CC(NC(=O)c2ccc(Oc3ccccc3C#N)c(Cl)c2)CC(C)(C)N1CC(N)=O` [Compound I-452] yielded an IC50 of over 80 µM. `CC1(C)CC(NC(=O)c2ccc(Oc3ncccc3C#N)c(Cl)c2)CC(C)(C)N1` [Compound I-249] showed an IC50 of 5 to 20 µM. With `CCc1cccc(Oc2ccc(C(=O)NC3CC(C)(C)NC(C)(C)C3)cc2)c1` [Compound I-131] the IC50 was over 80 µM. In the case of `CC1(C)CC(NC(=O)c2ccc(COc3cccc(-c4cccnc4N)c3)cc2)CC(C)(C)N1` [Compound I-47], the IC50 is reported as 20 to 80 µM. Work on `CC1(C)CC(NC(=O)c2ccc(Oc3cccc(-c4cnc(N)nc4)c3)cc2)CC(C)(C)N1` [Compound I-251] yielded an IC50 of 20 to 80 µM. `CC1(C)CC(NC(=O)c2ccc(C(=O)Nc3cccc(Br)c3)cc2)CC(C)(C)N1` [Compound I-161] gave an IC50 of over 80 µM. `CC1(C)CC(NC(=O)c2ccc(Oc3cccc(-c4cncs4)c3C#N)c(Cl)c2)CC(C)(C)N1` [Compound I-371] was tested, and the IC50 was under 5 µM. `COc1cc(-c2cccc(Oc3ccc(C(=O)NC4CC(C)(C)NC(C)(C)C4)cc3Cl)c2C#N)ccn1` [Compound I-500] gave an IC50 of under 5 µM. With `CC(O)c1cccc(Oc2ccc(C(=O)NC3CC(C)(C)NC(C)(C)C3)cc2Cl)c1-c1ccncc1` (stereo not drawn) [Compound I-400] the IC50 was 5 to 20 µM. Work on `CC1(C)CC(NC(=O)c2ccc(Oc3cccc(C4CCOCC4)c3C#N)c(Cl)c2)CC(C)(C)N1` [Compound I-531] yielded an IC50 of under 5 µM. For `CC1(C)CC(C#N)(NC(=O)c2ccc(Oc3cccc(-c4ccnnc4)c3C#N)c(Cl)c2)CC(C)(C)N1` [Compound I-456], the IC50 was under 5 µM. Molecule `CC1(C)CC(NC(=O)c2ccc(-n3ccc4ccccc43)c(Cl)c2)CC(C)(C)N1` [Compound I-328] has an IC50 of 20 to 80 µM. In the case of `CC(Oc1ccccc1Oc1ccc(C(=O)NC2CC(C)(C)NC(C)(C)C2)cc1)c1ccccc1` (stereo not drawn) [Compound I-208], the IC50 is reported as 5 to 20 µM. Molecule `CC1(C)CC(NC(=O)c2ccc(Oc3ncccn3)cc2)CC(C)(C)N1` [Compound I-79] has an IC50 of over 80 µM. Work on `CC1(C)CC(NC(=O)c2ccc(Oc3cccc4cnc(N)cc34)cc2)CC(C)(C)N1` [Compound I-350] yielded an IC50 of 5 to 20 µM. `CC1(C)CC(NC(=O)c2ccc(C3=NCC(=O)Nc4ccccc43)cc2)CC(C)(C)N1` [Compound I-436] showed an IC50 of over 80 µM. For `COC(=O)c1ccc(-c2ccccc2Oc2ccc(C(=O)NC3CC(C)(C)NC(C)(C)C3)cc2Cl)cn1` [Compound I-294], the IC50 was under 5 µM. For `CC1(C)CC(NC(=O)c2ccc(Oc3cccc4cnccc34)c(Br)c2)CC(C)(C)N1` [Compound I-291], the IC50 was under 5 µM. For `CC1(C)CC(NC(=O)c2ccc(Oc3cccc(-c4cnn(CC(N)=O)c4)c3C#N)c(Cl)c2)CC(C)(C)N1` [Compound I-386], the IC50 was under 5 µM. `CC1(C)CC(NC(=O)c2ccc(Oc3cccc(CN4CCOCC4)c3)cc2)CC(C)(C)N1` [Compound I-234] was tested, and the IC50 was over 80 µM. With `CC1(C)CC(NC(=O)c2ccc(CCc3ccccc3)cc2)CC(C)(C)N1` [Compound I-241] the IC50 was over 80 µM. `CN(C)Cc1cccc(Oc2ccc(C(=O)NC3CC(C)(C)NC(C)(C)C3)cc2)c1` [Compound I-247] gave an IC50 of 20 to 80 µM. With `CC1(C)CC(NC(=O)c2ccc(Oc3ccccc3C#N)c(C(F)(F)F)c2)CC(C)(C)N1` [Compound I-218] the IC50 was under 5 µM. `Cc1cccc(C#N)c1Oc1ccc(C(=O)NC2CC(C)(C)NC(C)(C)C2)cc1` [Compound I-176] gave an IC50 of 20 to 80 µM. `CC1(C)CC(NC(=O)c2ccc(-c3ccccc3)cc2)CC(C)(C)N1` [Compound I-61] showed an IC50 of 20 to 80 µM. `CC1(C)CC(NC(=O)c2ccc(Oc3cccc(-c4cnn(CC(=O)O)c4)c3C#N)c(Cl)c2)CC(C)(C)N1` [Compound I-374] was tested, and the IC50 was under 5 µM. `CC1(C)CC(NC(=O)c2ccc(COc3cccnc3Cl)cc2)CC(C)(C)N1` [Compound I-77] showed an IC50 of over 80 µM. Work on `CC1(C)CC(NC(=O)c2ccc(Sc3ccccc3)c(Cl)c2)CC(C)(C)N1` [Compound I-300] yielded an IC50 of 20 to 80 µM. Work on `CC1(C)CC(NC(=O)c2ccc(Oc3cnccn3)cc2)CC(C)(C)N1` [Compound I-78] yielded an IC50 of over 80 µM. With `CC1(C)CC(NC(=O)c2ccc(Oc3ccccc3C#N)c(Cl)c2)CC(C)(C)C1` [Compound I-433] the IC50 was over 80 µM. In the case of `CNC(=O)Cc1cccc(Oc2ccc(C(=O)NC3CC(C)(C)NC(C)(C)C3)cc2Cl)c1C#N` [Compound I-458], the IC50 is reported as under 5 µM. Molecule `CCCc1cc(C(=O)NC2CC(C)(C)NC(C)(C)C2)ccc1Oc1ccccc1C#N` [Compound I-198] has an IC50 of under 5 µM. With `N#Cc1ccccc1Oc1ccc(C(=O)N[C@@H]2C[C@H]3CC[C@@H](C2)N3)cc1Cl` [Compound I-380] the IC50 was 20 to 80 µM. In the case of `CC1(C)CC(NC(=O)c2ccc(COc3cccc(-c4ccc(O)cc4)c3)cc2)CC(C)(C)N1` [Compound I-38], the IC50 is reported as 20 to 80 µM. In the case of `CC1(C)CC(NC(=O)c2ccc(Oc3cccc4c(Cl)nccc34)cc2)CC(C)(C)N1` [Compound I-314], the IC50 is reported as 5 to 20 µM. Molecule `CC1(C)CC(NC(=O)c2ccc(Oc3cccc(CC(N)=O)c3C#N)c(Cl)c2)CC(C)(C)N1` [Compound I-469] has an IC50 of under 5 µM. `CC1(C)CC(NC(=O)c2ccc(N3CCOC(c4ccccc4)C3)c(Cl)c2)CC(C)(C)N1` (stereo not drawn) [Compound I-416] was tested, and the IC50 was over 80 µM. Molecule `CC1(C)CC(NC(=O)c2ccc(Oc3cccc(C#N)c3)cc2)CC(C)(C)N1` [Compound I-17] has an IC50 of 5 to 20 µM. For `CC1(C)CC(NC(=O)c2ccc(Oc3ccccc3)nc2)CC(C)(C)N1` [Compound I-64, 6-Phenoxy-N-(2,2,6,6-tetramethylpiperidin-4-yl)nicotinamide], the IC50 was 20 to 80 µM. For `CC1(C)CC(NC(=O)c2ccc(COc3cccc(N4CCCNCC4)c3)cc2)CC(C)(C)N1` [Compound I-166], the IC50 was over 80 µM. Molecule `CC1(C)CC(NC(=O)c2ccc(Oc3ccccc3-c3ccccc3)c(Cl)c2)CC(C)(C)N1` [Compound I-206] has an IC50 of under 5 µM. Molecule `CC1(C)CC(NC(=O)c2ccc(Oc3ccccc3C#N)c3ccccc23)CC(C)(C)N1` [Compound I-270] has an IC50 of under 5 µM. Molecule `CC1(C)CC(NC(=O)c2ccc(COc3cccc4c3CCCC4)cc2)CC(C)(C)N1` [Compound I-188] has an IC50 of under 5 µM. Molecule `Cc1cc(Oc2ccccc2)ccc1C(=O)NC1CC(C)(C)NC(C)(C)C1` [Compound I-124, 2-methyl-4-phenoxy-N-(2,2,6,6-tetramethylpiperidin-4-yl)-benzamide] has an IC50 of over 80 µM. `CC1(C)CC(NC(=O)c2ccc(Oc3ccccc3C#N)c(-c3cncnc3)c2)CC(C)(C)N1` [Compound I-202] was tested, and the IC50 was 5 to 20 µM. `CC1(C)CC(NC(=O)c2ccc(Oc3ccccc3)cc2F)CC(C)(C)N1` [Compound I-203] showed an IC50 of over 80 µM. `CC1(C)CC(NC(=O)c2ccc(N3CC(c4ccccc4)CC3=O)c(Cl)c2)CC(C)(C)N1` (stereo not drawn) [Compound I-396] gave an IC50 of over 80 µM. `CC1(C)CC(NC(=O)c2ccc(COc3cccc4cnccc34)cc2)CC(C)(C)N1` [Compound I-182] gave an IC50 of 5 to 20 µM. In the case of `Cc1cc(-c2cccc(OCc3ccc(C(=O)NC4CC(C)(C)NC(C)(C)C4)cc3)c2)cnc1F` [Compound I-27], the IC50 is reported as 20 to 80 µM. In the case of `CC1(C)CC(NC(=O)c2ccccc2Oc2ccccc2)CC(C)(C)N1` [Compound I-95], the IC50 is reported as over 80 µM. With `CC1(C)CC(NC(=O)c2ccc(Oc3ccccc3C#N)c(Cl)c2)C(F)(F)C(C)(C)N1` (stereo not drawn) [Compound I-418] the IC50 was 20 to 80 µM. Work on `CC1(C)CC(NC(=O)c2ccc(Oc3ccccc3C#N)c(Cl)c2)CC(C)(C)N1CC(=O)O` [Compound I-424] yielded an IC50 of over 80 µM. `CC1(C)CC(NC(=O)c2ccc(OC3CCCCC3)cc2)CC(C)(C)N1` [Compound I-147] gave an IC50 of 20 to 80 µM. For `CC1(C)CC(NC(=O)c2ccc(Oc3ccccc3C(C)(C)C)c(Cl)c2)CC(C)(C)N1` [Compound I-210], the IC50 was 20 to 80 µM. With `CC1(C)CC(NC(=O)c2ccc(Oc3cccnc3C#N)cc2)CC(C)(C)N1` [Compound I-10] the IC50 was 5 to 20 µM.
